The record followed here is patent US20240150345A1, “GCN2 MODULATING COMPOUNDS AND USES THEREOF” (HiberCell, Inc., priority 2021, published 2024).

A value given as a limit tells only on which side of the number the result lay.

One may read the IC50 as the midpoint of a concentration-inhibition curve.

For the test, the target named is T1, GCN2 (Homo sapiens, UniProt Q9P2K8).
T1 construct: purchased Carma Biosciences (so in the source)
T1 sequence (Q9P2K8 whole entry): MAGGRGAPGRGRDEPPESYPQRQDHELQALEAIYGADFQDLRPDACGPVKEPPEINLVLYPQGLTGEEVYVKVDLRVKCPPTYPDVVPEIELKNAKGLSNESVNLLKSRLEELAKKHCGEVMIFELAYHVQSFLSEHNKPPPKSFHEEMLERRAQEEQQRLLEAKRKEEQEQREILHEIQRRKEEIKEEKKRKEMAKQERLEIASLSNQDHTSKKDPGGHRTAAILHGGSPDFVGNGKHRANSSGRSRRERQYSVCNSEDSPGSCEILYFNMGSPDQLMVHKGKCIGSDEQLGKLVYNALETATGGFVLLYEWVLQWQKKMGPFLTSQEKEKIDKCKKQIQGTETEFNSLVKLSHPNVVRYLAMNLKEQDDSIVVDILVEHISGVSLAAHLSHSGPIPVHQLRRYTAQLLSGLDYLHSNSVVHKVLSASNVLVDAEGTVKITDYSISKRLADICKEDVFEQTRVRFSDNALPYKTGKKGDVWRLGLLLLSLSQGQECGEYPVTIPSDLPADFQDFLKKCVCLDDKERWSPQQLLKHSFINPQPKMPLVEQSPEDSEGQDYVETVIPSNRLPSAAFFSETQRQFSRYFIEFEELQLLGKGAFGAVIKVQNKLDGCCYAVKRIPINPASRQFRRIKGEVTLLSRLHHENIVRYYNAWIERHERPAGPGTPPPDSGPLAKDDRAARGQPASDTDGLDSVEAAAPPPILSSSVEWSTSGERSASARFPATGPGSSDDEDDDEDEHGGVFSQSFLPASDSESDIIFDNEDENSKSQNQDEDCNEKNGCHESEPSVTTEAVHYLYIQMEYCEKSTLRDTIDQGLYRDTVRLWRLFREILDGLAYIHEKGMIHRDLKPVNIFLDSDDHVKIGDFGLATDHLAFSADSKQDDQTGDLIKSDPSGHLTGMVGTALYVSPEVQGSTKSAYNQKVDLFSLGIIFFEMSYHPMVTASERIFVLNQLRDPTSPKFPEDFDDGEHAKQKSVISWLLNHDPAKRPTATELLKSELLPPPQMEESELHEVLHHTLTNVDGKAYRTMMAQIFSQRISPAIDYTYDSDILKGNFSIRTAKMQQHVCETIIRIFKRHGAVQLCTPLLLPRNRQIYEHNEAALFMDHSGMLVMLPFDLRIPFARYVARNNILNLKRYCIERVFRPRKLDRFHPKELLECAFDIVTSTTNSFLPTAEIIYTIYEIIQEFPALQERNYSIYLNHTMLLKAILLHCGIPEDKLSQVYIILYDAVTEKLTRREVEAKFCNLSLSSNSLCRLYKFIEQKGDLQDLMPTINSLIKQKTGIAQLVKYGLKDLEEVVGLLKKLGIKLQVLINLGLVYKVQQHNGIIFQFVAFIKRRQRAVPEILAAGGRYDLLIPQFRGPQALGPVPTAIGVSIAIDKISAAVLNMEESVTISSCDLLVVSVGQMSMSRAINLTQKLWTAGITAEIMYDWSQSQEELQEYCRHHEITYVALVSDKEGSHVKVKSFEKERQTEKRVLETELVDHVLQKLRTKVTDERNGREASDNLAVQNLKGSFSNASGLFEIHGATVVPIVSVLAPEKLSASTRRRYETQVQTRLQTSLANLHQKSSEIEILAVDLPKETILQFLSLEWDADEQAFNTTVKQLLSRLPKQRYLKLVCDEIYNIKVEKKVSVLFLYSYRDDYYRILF
As to the kind of experiment: TR-FRET biochemical assay for inhibition of GCN2 activity. The conditions noted are these: 2 nM GCN2, 100 nM GFP-eIF2α, 150 μM ATP, 1.5 hours at 25° C. As for the experimental part: Exemplary compounds from the above Examples were tested for ability to inhibit GCN2 activity using a time resolved fluorescence energy transfer (TR-FRET) assay. Assay procedures and results are described below for Examples 12-105.
GCN2 protein was obtained from Carma Biosciences (cat #05-153). The protein was diluted in assay buffer (ThermoFisher Scientific, #PV6135), 2 mM dithiothreitol (DTT), to obtain a final concentration of 2 nM and 5 μL was plated in a 384-well white assay plate. Test compounds were serially diluted to 11 concentrations by 3-fold dilution in DMS0 and 10 nL of stock was plated into 384 well white assay plate. DMS0 was used as a vehicle control. GFP-eIF2α protein was obtained from ThermoFisher (cat #PV4809). The protein was diluted in assay buffer to a 2× concentration of 200 nM along with 300 μM ATP (final concentration of 100 nM GFP-eIF2α and 150 μM ATP) in the presence of 2 mM DTT and a […] was added to each well containing the GCN2 protein and test compound. The plate was incubated in the dark at 25° C. for 1.5 hours, shaking at 1250 rpm. Tb-anti P-eIF2α (ThermoFisher cat #PV4815) was diluted to a to a concentration of 1 nM in TR-FRET Dilution Buffer (ThermoFisher cat #PV3574). 10 μL of the Tb-anti P-eIF2a solution was added to the TR-FRET reaction. The plate was incubated in the dark for 2 h at 25° C. shaking at 600 rpm. The FRET signal from the plate was read on a Envision (PerkinElmer) plate reader: • Label 1: Excitation: 340 nm, bandwidth 30 nm; Emission: 495 nm, bandwidth 10 nm. Lag time: 100 μsec. Integration time: 400 μsec. Flashes: 30. • Label 2: Excitation: 340 nm, bandwidth 30 nm; Emission: 520 nm, bandwidth 25 nm. Lag time: 100 μsec. Integration time: 400 μsec. Flashes: 30
The data were analyzed using GraphPad Prism employing a 4-parameter sigmoidal curve fit.
`COc1ncc(C#N)cc1S(=O)(=O)Nc1ccc(F)c(OCc2cnc3[nH]nc(C)c3c2)c1F` [Compound 48, 5-cyano-N-(2,4-difluoro-3-((3-methyl-1H-pyrazolo[3,4-b]pyridin-5-yl)methoxy)phenyl)-2-methoxypyridine-3-sulfonamide] gave a half-maximal inhibitory concentration (IC50) of 50 to 500 nM. Molecule `COc1ncc(Cl)cc1S(=O)(=O)Nc1ccc(F)c(COc2cnc3cnn(C)c3c2)c1F` [Compound 42, 5-chloro-N-[2,4-difluoro-3-[([1-methylpyrazolo[4,3-b]pyridin-6-yl]oxy)methyl]phenyl]-2-methoxypyridine-3-sulfonamide] had an IC50 of less than 50 nM.

The molecule `COc1ncc(Cl)cc1S(=O)(=O)Nc1ccc(F)c(COc2cnc3[nH]nc(C)c3c2)n1` [Compound 68, 5-chloro-N-[5-fluoro-6-[([3-methyl-1H-pyrazolo[3,4-b]pyridin-5-yl]oxy)methyl]pyridin-2-yl]-2-methoxypyridine-3-sulfonamide] yielded an IC50 of 50 to 500 nM. With `COc1ncc(F)cc1S(=O)(=O)Nc1ccc(F)c(COc2cnc3[nH]nc(C(C)C)c3c2)c1F` [Compound 52, N-[2,4-difluoro-3-[([3-isopropyl-1H-pyrazolo[3,4-b]pyridin-5-yl]oxy)methyl]phenyl]-5-fluoro-2-methoxypyridine-3-sulfonamide] the figure was less than 50 nM; with `COc1ncc(Cl)cc1S(=O)(=O)Nc1ccc(F)c(COc2cnc3[nH]ncc3c2C)c1F` [Compound 22, 5-chloro-N-[2,4-difluoro-3-[([4-methyl-1H-pyrazolo[3,4-b]pyridin-5-yl]oxy)methyl]phenyl]-2-methoxypyridine-3-sulfonamide], less than 50 nM; with `COc1ncc(Cl)cc1S(=O)(=O)Nc1ccc(F)c(C(C)Oc2cnc3[nH]ncc3c2)c1F` (stereo not drawn) [Compound 25, 5-chloro-N-[2,4-difluoro-3-(1-[1H-pyrazolo[3,4-b]pyridin-5-yloxy]ethyl)phenyl]-2-methoxypyridine-3-sulfonamide], 500 to 1000 nM. The value for `COc1ncc(F)cc1S(=O)(=O)Nc1ccc(F)c(COc2cnc3[nH]c(=O)n(C)c3c2)c1F` [Compound 71, N-[2,4-difluoro-3-[([1-methyl-2-oxo-3H-imidazo[4,5-b]pyridin-6-yl]oxy)methyl]phenyl]-5-fluoro-2-methoxypyridine-3-sulfonamide] was less than 50 nM; that for `COc1ncc(F)cc1S(=O)(=O)Nc1ccc(F)c(COc2cnc3[nH]nc(C)c3c2-c2ccccc2)c1F` [Compound 85, N-[2,4-difluoro-3-[([3-methyl-4-phenyl-1H-pyrazolo[3,4-b]pyridin-5-yl]oxy)methyl]phenyl]-5-fluoro-2-methoxypyridine-3-sulfonamide] was 50 to 500 nM; that for `COc1ncc(F)cc1S(=O)(=O)Nc1ccc(F)c(CCc2cnc3[nH]ncc3c2)c1F` [Compound 15, N-[2,4-difluoro-3-(2-[1H-pyrazolo[3,4-b]pyridin-5-yl]ethyl)phenyl]-5-fluoro-2-methoxypyridine-3-sulfonamide] was less than 50 nM. The value for `COc1ncc(F)cc1S(=O)(=O)Nc1ccc(F)c(COc2cnc3[nH]nc(CC(F)F)c3c2)c1F` [Compound 75, N-[3-([[3-(2,2-difluoroethyl)-1H-pyrazolo[3,4-b]pyridin-5-yl]oxy]methyl)-2,4-difluorophenyl]-5-fluoro-2-methoxypyridine-3-sulfonamide] was less than 50 nM; that for `Cc1ncc(F)cc1S(=O)(=O)Nc1ccc(F)c(OCc2cnc3[nH]nc(C)c3c2)c1F` [Compound 51, N-[2,4-difluoro-3-([3-methyl-1H-pyrazolo[3,4-b]pyridin-5-yl]methoxy)phenyl]-5-fluoro-2-methylpyridine-3-sulfonamide] was 50 to 500 nM; that for `CCn1ncc2ncc(CCc3c(F)ccc(NS(=O)(=O)c4cc(F)cnc4OC)c3F)cc21` [Compound 34, N-[3-(2-[1-ethylpyrazolo[4,3-b]pyridin-6-yl]ethyl)-2,4-difluorophenyl]-5-fluoro-2-methoxypyridine-3-sulfonamide] was less than 50 nM.
